Results: patent US4349625A, “Method for assaying fatty acids” (Mitsubishi Chemical Industries Limited, priority 1979, dated 1982)
Structures can show the parent of a compound that is named as a salt.

Assays:
Type in all cases: biochemical
[1] = molecular target: T1, FFA-albumin linkage in human serum (Homo sapiens, UniProt P02768); experiment: Example 2: enzymatic assay of FFA in human serum samples (Procedure A) with dissociating agent
T1 construct: were replaced by human serum samples; from tissue; host or cells: human serum
T1 sequence (P02768 25-609): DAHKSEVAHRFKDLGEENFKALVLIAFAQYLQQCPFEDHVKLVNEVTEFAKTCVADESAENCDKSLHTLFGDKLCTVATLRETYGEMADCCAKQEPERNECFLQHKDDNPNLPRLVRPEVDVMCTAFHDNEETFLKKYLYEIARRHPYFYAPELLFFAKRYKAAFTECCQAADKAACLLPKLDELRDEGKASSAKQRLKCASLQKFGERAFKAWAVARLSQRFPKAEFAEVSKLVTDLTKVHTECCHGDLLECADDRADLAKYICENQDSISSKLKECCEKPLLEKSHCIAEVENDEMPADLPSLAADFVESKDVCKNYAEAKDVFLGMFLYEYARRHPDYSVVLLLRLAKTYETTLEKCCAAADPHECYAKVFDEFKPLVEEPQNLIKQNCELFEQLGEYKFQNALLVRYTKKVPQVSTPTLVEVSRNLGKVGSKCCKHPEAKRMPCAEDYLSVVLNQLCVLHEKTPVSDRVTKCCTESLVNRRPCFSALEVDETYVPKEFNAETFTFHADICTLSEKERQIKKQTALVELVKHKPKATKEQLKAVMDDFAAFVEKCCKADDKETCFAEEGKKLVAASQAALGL
Protocol: The reaction was continued for 15 minutes at 37° C., and the OD340 values were read just before the addition of CoA solution and 15 minutes later when the reaction was almost complete and decrease in OD ceased. As a sample blank distilled water was substituted for the ACS solution in the reaction systems and the reaction and measurement of OD were carried out in the same way.
The concentration of FFA in a serum sample was calculated by the following equation: [formula] where:
A=0D340 of the reaction system just before the addition of CoA solution;
B=OD340 of the reaction system after 15 minutes
C=OD340 just before the addition of CoA solution in the blank run, and
D=OD340 after 15 minutes in the blank run.

[2] = molecular target: T2, FFA-albumin linkage (human serum albumin) (Homo sapiens, UniProt P02768); experiment: Example 1: rate of ACS-coupled NADH reaction (Procedure A) on FFA sample containing albumin, with dissociating agent; conditions: sample 0.5 mM FFA + 2.5% human serum albumin, 37° C.
T2 sequence (P02768 25-609): as above
Protocol: 100 mM Tris-HCl buffer pH 8.0 containing 2 mg/ml of Triton X-100, 2 mM 2Na-EDTA (disodium ethylenediaminetetraacetate) and 10 mM MgCl2.
40 mg of ATP disodium salt, 50 mg of potassium phosphoenolpyruvate, 20 U of myokinase (available from Boehringer Mannheim (B.M.), grade I), 15 U of pyruvate kinase (available from B.M., grade II) and 15 U of lactate dehydrogenase (available from B.M., derived from rabbit muscle) are dissolved in 1 ml of the above-mentioned buffer.
In 1 ml of the above buffer, 3 mg of NADH disodium salt is dissolved.
An ACS solution in 50% glycerine in a concentration of about 4 U/ml as prepared in Preparation 1 which is diluted with three volumes of water is used.
Aqueous 0.5 mM potassium oleate solution is used. […] The content of the microcell was then preheated at 37° C. in a spectrophotometer (Shimadzu, model UV-200) equipped with a thermostated cell holder. Thereafter 20 μl of the CoA solution was added to initiate the reaction and decrease in optical density (OD) at 340 nm was recorded with the elapse of time. From the data, the value of maximum ΔOD/min was calculated.

[3] = molecular target: T2, FFA-albumin linkage (human serum albumin); experiment: Example 3: ACS/ACO colorimetric FFA assay (Procedure B) on potassium oleate plus human serum albumin; conditions: 0.5% in assay system; sample 280 μM potassium oleate + 2.5% human serum albumin; without agent -0.016
Protocol: 100 mM Tris-HCl buffer pH 8.0 containing 3.2 mM Triton X-100, 2 mM disodium ethylenediaminetetraacetate and a dissociating agent such as a benzenesulfonate.
100 mM Tris-HCl buffer pH 8.0 containing 60 mM magnesium chloride.
A solution of 80 mg of ATP disodium salt and 20 U of myokinase dissolved in 40 ml of Buffer (1).
Prepared by adding 5 ml of the ACS solution in 50% glycerine with a concentration of about 4 U/ml as prepared in Preparation 1 to a solution of 25 mg of CoA in 5 ml of Buffer (2).
A suspension of ACO in 50% saturated ammonium sulfate having a concentration of about 50 U/ml and prepared as described in Preparation 2. […]
A mixture of 100 μl of a sample containing 280 μM potassium oleate and 2.5% human serum albumin, 400 μl of Enzyme Solution (1) and 100 μl of Enzyme Solution (2) was kept at 37° C. for 15 minutes. […] The reaction solution was placed into a cell having a thickness of 10 mm and the value (A) for optical density at 535 nm was measured. As a control, the sample was replaced by the same volume of water and the optical density value (B) was measured in the same way.
An aqueous potassium oleate solution which is free from albumin was separately prepared as a standard solution. This solution was substituted for the sample and the optical density value (C) was also measured in the same way. […]

[4] = human serum C, solution of dissociating agent 20 mM, extraction method 560
[5] = dissociating agent 25 mM, control with albumin 0.019, without albumin 0.076

## O=C(O)CCCCCCCCCCCCC(=O)O [Dipotassium 1,12-dodecamethylenedicarboxylate]
[1]; [4]
  FFA assayed: 575 µM
[2]; dissociating agent 2.5 mM
  maximum ΔOD340/min: 0.041 ΔOD340/min
[2]; dissociating agent 10 mM
  maximum ΔOD340/min: 0.048 ΔOD340/min

## O=C(O)CCCCCCCCCCCCCCC(=O)O [Dipotassium 1,14-tetradecamethylenedicarboxylate]
[1]; human serum B, solution of dissociating agent 10 mM, extraction method 370
  FFA assayed: 340 µM
[1]; human serum C, solution of dissociating agent 10 mM, extraction method 560
  FFA assayed: 570 µM
[2]; dissociating agent 2.5 mM
  maximum ΔOD340/min: 0.045 ΔOD340/min

## O=C(O)CCCCCCCCCCCCCCCCC(=O)O [Dipotassium 1,16-hexadecamethylenedicarboxylate]
[2]; dissociating agent 2.5 mM
  maximum ΔOD340/min: 0.032 ΔOD340/min

## O=C(O)CCCCCCCCC(=O)O [Potassium salt of 1,8-octamethylenedicarboxylic acid]
[2]; [5]
  maximum ΔOD340/min: 0.026 ΔOD340/min

## O=C(O)CCCCCCCCCCCC(=O)O [Potassium salt of 1,11-undecamethylenedicarboxylic acid]
[1]; human serum A, solution of dissociating agent 20 mM, extraction method 1475
  FFA assayed: 1500 µM
[1]; human serum B, solution of dissociating agent 20 mM, extraction method 370
  FFA assayed: 340 µM
[1]; [4]
  FFA assayed: 570 µM
[2]; dissociating agent 5 mM
  maximum ΔOD340/min: 0.035 ΔOD340/min
[2]; dissociating agent 10 mM
  maximum ΔOD340/min: 0.040 ΔOD340/min
[2]; dissociating agent 20 mM
  maximum ΔOD340/min: 0.045 ΔOD340/min

## O=C(O)CCCCCCCCCCC(=O)O [Potassium salt of decamethylenedicarboxylic acid]
[1]; human serum B, solution of dissociating agent 50 mM, extraction method 370
  FFA assayed: 335 µM
[2]; dissociating agent 5 mM
  maximum ΔOD340/min: 0.028 ΔOD340/min
[2]; dissociating agent 10 mM
  maximum ΔOD340/min: 0.031 ΔOD340/min
[2]; dissociating agent 20 mM
  maximum ΔOD340/min: 0.034 ΔOD340/min

## O=C(O)CCCCCCC(=O)O [Potassium salt of hexamethylenedicarboxylic acid, reference compound]
[2]; [5]
  maximum ΔOD340/min: 0.015 ΔOD340/min

## O=C(O)CCCCC(=O)O [Potassium salt of tetramethylenedicarboxylic acid, reference compound]
[2]; [5]
  maximum ΔOD340/min: 0.015 ΔOD340/min

## CCCCCc1ccc(S(=O)(=O)[O-])cc1.[Na+] [Sodium p-n-amylbenzenesulfonate]
[2]; dissociating agent 50 mM
  maximum ΔOD340/min: 0.030 ΔOD340/min

## Cc1ccc(S(=O)(=O)O)cc1 [Sodium p-toluenesulfonate]
[1]; human serum C, solution of dissociating agent 1000 mM, extraction method 560
  FFA assayed: 585 µM
[2]; dissociating agent 100 mM
  maximum ΔOD340/min: 0.030 ΔOD340/min
[3]
  ΔOD535: 0.078
